The structures appear in SMILES notation.

Experiment [1] concerns the target T1, Ephrin type-B receptor 3 (Homo sapiens) (UniProt P54753).
T1 sequence (whole entry): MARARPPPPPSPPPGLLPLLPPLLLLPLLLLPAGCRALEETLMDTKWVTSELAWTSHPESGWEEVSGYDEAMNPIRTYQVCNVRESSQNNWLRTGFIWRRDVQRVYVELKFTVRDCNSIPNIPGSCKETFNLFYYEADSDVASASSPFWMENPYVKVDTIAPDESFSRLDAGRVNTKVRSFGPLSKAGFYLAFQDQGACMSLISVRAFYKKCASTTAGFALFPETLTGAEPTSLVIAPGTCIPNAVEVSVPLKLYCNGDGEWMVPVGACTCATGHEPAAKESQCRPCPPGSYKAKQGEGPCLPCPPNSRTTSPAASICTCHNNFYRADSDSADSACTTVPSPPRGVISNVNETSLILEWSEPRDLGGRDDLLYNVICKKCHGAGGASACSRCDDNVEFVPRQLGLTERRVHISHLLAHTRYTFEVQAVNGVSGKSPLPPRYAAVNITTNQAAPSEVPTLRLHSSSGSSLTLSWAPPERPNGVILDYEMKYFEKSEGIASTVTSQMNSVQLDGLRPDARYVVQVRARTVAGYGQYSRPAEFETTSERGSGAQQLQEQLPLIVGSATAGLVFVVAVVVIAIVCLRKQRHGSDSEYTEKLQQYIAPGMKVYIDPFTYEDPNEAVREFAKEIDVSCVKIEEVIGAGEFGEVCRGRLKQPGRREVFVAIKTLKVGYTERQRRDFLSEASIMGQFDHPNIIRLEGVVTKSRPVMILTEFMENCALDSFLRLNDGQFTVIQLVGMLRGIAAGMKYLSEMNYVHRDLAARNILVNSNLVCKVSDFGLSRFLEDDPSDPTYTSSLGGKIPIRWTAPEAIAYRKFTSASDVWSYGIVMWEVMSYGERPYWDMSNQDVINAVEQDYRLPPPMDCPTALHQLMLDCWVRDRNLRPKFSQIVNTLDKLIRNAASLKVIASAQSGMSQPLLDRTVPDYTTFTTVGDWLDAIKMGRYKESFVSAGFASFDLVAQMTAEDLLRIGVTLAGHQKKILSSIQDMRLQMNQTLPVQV
The experiment can be described thus: Residual activity of EPHB3 at 10 uM by microplate scintillation counting.

Experiment [2] has as its target T2, Aurora kinase A (Homo sapiens) (UniProt O14965).
T2 sequence (whole entry): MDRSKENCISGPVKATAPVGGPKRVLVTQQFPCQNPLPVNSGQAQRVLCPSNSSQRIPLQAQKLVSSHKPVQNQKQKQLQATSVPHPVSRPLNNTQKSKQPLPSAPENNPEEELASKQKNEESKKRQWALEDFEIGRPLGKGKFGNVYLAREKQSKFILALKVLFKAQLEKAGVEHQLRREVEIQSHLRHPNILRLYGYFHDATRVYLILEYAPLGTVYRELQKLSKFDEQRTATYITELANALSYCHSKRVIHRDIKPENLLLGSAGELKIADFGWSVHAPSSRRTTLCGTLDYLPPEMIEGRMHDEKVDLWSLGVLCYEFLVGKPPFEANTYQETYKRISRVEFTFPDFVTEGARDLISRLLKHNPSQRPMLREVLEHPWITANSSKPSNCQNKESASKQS
As to the kind of experiment: Residual activity of Aurora-A at 10 uM by microplate scintillation counting.

The target of experiment [3] is T3, Serine/threonine-protein kinase PLK4 (Homo sapiens) (UniProt O00444).
T3 sequence (whole entry): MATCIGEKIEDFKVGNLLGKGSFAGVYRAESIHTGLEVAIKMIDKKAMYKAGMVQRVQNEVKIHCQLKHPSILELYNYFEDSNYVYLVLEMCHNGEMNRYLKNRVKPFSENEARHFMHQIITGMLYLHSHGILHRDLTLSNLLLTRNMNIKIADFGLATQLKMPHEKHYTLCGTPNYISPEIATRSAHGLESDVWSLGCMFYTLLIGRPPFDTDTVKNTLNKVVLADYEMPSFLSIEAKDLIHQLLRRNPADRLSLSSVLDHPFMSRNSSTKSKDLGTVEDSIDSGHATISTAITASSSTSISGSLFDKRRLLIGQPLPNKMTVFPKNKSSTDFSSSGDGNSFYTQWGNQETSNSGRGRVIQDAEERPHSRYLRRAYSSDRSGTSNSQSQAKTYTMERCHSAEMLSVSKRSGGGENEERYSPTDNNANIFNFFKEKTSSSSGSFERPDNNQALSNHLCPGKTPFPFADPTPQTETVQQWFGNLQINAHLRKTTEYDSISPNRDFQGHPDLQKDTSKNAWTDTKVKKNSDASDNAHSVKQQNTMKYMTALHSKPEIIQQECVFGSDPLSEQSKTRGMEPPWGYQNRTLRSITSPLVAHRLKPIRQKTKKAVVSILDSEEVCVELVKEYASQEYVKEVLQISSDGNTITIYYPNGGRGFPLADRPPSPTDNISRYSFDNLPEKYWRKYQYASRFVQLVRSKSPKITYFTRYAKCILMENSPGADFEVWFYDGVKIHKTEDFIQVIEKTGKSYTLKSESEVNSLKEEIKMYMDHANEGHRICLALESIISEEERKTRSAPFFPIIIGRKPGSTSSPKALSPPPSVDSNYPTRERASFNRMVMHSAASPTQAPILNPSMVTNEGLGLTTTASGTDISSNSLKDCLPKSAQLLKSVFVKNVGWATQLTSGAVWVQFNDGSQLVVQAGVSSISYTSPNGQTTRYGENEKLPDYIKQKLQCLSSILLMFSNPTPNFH
The experiment can be described thus: Residual activity of SAK at 0.1 uM by microplate scintillation counting.

Experiment [4] addresses T4, Cyclin-dependent kinase 5/CDK5 activator 1 (Homo sapiens) (UniProt Q00535+Q15078). The experiment can be described thus: Residual activity of CDK5/p35NCK at 0.1 uM by microplate scintillation counting. The experiment is classed as protein-complex assay.
Experiment [5] has as its target Protein kinase C alpha type (Homo sapiens) (UniProt P17252). The experiment can be described thus: Residual activity of PKCalpha at 10 uM by microplate scintillation counting.
The target in experiment [6] is Dual specificity mitogen-activated protein kinase kinase 1 (Homo sapiens) (UniProt Q02750). The experiment can be described thus: Residual activity of wild type MEK1 at 1 uM by microplate scintillation counting.
For experiment [7], the target named is Serine/threonine-protein kinase PLK1 (Homo sapiens) (UniProt P53350). The experiment can be described thus: Residual activity of PLK1 at 1 uM by microplate scintillation counting.
The target in experiment [8] is Myosin light chain kinase 2, skeletal/cardiac muscle (Homo sapiens) (UniProt Q9H1R3). The experiment can be described thus: Residual activity of MYLK2 at 10 uM by microplate scintillation counting.
The target of experiment [9] is CDC42BPA protein (Homo sapiens) (UniProt B9EGA7). The experiment can be described thus: Residual activity of CDC42BPA at 1 uM by microplate scintillation counting.
For experiment [10], the target named is T4, Cyclin-dependent kinase 5/CDK5 activator 1 (Homo sapiens). The experiment can be described thus: Residual activity of CDK5/p35NCK at 10 uM by microplate scintillation counting. The experiment is classed as protein-complex assay.
For experiment [11], the target named is Tyrosine-protein kinase SYK (Homo sapiens) (UniProt P43405). As to the kind of experiment: Residual activity of SYK at 0.1 uM by microplate scintillation counting.
Experiment [12] addresses Serine/threonine-protein kinase N2 (Homo sapiens) (UniProt Q16513). As to the kind of experiment: Residual activity of PRK2 at 1 uM by microplate scintillation counting.

CDC42BPA protein (Homo sapiens), sequence (B9EGA7 as listed by the source): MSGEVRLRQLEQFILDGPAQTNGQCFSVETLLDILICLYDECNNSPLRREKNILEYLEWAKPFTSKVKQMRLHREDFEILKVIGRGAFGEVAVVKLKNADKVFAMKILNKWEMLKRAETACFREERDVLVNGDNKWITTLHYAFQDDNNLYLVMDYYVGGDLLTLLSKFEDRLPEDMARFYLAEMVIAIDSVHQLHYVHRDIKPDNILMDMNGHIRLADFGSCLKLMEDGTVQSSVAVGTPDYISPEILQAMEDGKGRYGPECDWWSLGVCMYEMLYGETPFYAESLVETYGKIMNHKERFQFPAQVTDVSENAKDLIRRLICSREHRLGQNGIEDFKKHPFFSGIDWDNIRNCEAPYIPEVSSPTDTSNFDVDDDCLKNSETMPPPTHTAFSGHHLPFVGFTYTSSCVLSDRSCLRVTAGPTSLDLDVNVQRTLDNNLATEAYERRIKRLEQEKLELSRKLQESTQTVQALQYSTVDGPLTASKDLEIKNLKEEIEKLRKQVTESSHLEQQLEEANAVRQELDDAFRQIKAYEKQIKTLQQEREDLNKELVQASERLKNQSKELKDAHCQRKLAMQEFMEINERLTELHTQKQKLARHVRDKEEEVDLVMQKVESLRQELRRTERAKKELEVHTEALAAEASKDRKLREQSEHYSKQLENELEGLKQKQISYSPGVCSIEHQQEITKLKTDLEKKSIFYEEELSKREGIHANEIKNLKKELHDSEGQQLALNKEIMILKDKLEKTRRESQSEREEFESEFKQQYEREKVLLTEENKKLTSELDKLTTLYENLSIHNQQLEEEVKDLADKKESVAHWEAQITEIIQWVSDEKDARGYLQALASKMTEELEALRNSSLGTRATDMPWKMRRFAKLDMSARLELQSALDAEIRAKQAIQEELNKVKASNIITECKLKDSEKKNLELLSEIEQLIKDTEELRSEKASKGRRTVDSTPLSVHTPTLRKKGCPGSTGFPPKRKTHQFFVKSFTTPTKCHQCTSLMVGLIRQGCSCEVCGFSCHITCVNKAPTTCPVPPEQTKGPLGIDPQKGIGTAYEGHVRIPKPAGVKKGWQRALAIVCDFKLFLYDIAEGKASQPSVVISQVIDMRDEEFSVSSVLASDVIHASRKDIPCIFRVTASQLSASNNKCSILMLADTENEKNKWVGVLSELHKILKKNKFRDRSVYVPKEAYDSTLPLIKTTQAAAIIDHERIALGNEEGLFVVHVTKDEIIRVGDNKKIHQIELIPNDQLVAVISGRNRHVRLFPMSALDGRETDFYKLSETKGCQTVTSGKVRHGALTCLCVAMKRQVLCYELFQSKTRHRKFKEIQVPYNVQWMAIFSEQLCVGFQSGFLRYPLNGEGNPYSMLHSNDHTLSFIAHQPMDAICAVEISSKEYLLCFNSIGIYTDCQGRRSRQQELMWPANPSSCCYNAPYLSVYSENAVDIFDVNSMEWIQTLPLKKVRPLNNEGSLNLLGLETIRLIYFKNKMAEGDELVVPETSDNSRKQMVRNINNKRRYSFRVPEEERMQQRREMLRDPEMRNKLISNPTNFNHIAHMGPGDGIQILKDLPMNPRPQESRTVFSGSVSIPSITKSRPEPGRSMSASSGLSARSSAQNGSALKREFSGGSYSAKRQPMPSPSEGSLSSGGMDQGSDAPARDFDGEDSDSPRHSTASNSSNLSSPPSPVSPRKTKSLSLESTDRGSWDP
T4 sequence (Q00535 whole entry): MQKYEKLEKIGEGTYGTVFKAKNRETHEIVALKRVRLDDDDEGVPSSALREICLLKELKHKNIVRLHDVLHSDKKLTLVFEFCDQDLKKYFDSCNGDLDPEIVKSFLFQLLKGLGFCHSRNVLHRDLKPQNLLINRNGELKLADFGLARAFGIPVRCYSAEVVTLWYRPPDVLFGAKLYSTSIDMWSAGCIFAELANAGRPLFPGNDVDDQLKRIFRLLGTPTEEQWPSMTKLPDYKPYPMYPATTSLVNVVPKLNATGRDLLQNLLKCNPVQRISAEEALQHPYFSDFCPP
T4 sequence (Q15078 99-307 partner limits assumed): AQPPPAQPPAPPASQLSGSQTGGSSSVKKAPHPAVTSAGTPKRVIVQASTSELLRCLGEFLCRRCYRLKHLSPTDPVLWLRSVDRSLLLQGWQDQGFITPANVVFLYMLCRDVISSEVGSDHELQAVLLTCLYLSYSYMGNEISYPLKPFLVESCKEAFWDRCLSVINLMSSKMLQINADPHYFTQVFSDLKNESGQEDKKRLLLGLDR
Serine/threonine-protein kinase PLK1 (Homo sapiens), sequence (P53350 whole entry): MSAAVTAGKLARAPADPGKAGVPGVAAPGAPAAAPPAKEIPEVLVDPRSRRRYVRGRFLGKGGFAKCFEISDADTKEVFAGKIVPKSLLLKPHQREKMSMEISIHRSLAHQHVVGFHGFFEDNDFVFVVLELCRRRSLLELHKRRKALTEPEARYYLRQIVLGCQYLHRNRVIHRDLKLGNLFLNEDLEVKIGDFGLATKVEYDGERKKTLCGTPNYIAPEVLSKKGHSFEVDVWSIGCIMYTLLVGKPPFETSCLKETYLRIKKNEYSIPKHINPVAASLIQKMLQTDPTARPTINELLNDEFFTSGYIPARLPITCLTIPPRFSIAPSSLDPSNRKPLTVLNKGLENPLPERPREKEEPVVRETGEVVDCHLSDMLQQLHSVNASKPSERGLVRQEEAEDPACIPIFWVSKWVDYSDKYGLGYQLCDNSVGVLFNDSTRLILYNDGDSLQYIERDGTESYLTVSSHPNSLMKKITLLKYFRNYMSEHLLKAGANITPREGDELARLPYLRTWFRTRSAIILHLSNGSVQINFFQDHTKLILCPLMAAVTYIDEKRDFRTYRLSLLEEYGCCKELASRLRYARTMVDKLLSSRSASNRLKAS
Dual specificity mitogen-activated protein kinase kinase 1 (Homo sapiens), sequence (Q02750 whole entry): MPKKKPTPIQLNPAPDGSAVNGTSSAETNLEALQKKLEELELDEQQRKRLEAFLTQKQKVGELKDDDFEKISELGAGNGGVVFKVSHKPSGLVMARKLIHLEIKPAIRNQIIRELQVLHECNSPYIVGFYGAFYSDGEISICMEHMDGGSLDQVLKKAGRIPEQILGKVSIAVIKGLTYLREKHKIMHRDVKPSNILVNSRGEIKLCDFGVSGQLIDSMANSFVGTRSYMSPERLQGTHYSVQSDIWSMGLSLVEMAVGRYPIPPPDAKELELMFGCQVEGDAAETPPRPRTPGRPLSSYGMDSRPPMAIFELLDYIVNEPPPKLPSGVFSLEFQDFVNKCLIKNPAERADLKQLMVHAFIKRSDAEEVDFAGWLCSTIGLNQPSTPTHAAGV
Serine/threonine-protein kinase N2 (Homo sapiens), sequence (Q16513 whole entry, looked up): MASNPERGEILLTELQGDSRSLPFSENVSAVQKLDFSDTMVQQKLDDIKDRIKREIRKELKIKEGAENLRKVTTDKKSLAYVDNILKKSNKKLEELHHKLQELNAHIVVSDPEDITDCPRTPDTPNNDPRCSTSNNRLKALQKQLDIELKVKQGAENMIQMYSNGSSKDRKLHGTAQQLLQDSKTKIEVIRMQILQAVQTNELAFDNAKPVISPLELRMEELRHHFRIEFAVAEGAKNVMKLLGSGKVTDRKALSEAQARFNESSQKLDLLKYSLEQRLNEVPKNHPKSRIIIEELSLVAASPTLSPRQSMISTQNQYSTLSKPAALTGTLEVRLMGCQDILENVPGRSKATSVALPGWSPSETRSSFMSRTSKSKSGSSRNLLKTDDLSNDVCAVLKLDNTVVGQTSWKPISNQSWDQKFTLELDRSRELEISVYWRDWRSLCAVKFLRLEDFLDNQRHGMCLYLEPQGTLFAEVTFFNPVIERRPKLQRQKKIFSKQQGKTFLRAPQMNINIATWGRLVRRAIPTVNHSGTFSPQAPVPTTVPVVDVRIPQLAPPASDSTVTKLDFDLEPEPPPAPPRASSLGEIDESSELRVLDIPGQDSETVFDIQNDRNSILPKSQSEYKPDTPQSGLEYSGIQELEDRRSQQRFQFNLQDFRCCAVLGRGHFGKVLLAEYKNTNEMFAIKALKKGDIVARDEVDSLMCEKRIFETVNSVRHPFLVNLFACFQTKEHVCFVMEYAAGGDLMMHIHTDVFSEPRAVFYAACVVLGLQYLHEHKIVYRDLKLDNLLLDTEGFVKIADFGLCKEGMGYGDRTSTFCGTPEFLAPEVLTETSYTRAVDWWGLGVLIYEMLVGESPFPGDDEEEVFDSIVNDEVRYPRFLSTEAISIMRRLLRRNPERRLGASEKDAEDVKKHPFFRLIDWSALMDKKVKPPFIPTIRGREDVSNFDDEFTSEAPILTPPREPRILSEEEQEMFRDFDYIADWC
Myosin light chain kinase 2, skeletal/cardiac muscle (Homo sapiens), sequence (Q9H1R3 whole entry): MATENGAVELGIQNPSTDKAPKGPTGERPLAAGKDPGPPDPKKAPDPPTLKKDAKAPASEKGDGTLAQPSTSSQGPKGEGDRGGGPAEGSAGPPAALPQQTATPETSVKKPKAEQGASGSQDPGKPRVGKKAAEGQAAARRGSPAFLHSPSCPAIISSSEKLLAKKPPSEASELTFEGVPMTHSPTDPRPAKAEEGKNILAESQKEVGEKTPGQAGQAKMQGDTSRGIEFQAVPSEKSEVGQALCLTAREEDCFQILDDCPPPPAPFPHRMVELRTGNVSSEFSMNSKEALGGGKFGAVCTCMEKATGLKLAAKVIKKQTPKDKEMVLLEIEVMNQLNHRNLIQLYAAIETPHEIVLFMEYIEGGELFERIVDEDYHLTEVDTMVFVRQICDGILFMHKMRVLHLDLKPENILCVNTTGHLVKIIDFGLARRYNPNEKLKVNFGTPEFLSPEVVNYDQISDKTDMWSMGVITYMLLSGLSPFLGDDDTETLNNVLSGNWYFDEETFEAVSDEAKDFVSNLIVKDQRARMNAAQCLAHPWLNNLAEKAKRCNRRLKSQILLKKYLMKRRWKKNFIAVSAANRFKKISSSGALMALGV

For the molecule `COc1cc2c(Oc3ccc(-c4nc5ccccc5s4)cc3F)ncnc2cc1OCCCN1CCN(C)CC1`, the residual activity amounted to 105% in [1]; 4% in experiment [2]; 80% in experiment [3]; 83% in experiment [4]; 50% in experiment [5]; 52% in [6]. Also, the residual activity in experiment [7] stood at 97%; in [8] it was 117%; in [9], 89%; in experiment [10], 86%; in experiment [11], 97%; in experiment [12] it was 70%.

In the case of `COc1cc2c(Oc3ccc(-c4nc5ccccc5s4)cc3)ncnc2cc1OCCCN1CCN(C)CC1`, the residual activity stood at 372% in experiment [1]; 5% in experiment [2]; 63% in experiment [3]; 93% in [4]; 80% in experiment [5]; 53% in experiment [6]. Also, the residual activity in experiment [7] came out at 100%; in experiment [8], 115%; in experiment [9], 117%; in [10] it was 96%; in experiment [11], 96%; in experiment [12] it was 66%.

As to `COc1cc2c(Oc3ccc(-c4nc5ccccc5s4)cc3)ncnc2cc1OCCCN1CCCC1`, the residual activity turned out to be 227% in experiment [1]; 4% in experiment [2]; 56% in experiment [3]; 94% in experiment [4]; 61% in experiment [5]; 59% in [6]. In addition, the residual activity worked out at 88% in experiment [7]; 82% in [8]; 117% in experiment [9]; 98% in experiment [10]; 103% in [11]; 97% in experiment [12].

(Values after ChEMBL document CHEMBL1152560, “Substituted 2-arylbenzothiazoles as kinase inhibitors: hit-to-lead optimization” (Bioorg Med Chem, 2009).)
